{"source": "ChEMBL document CHEMBL1144371", "about": "“Design, synthesis, and biological evaluation of novel 4-hydroxypyrone derivatives as HIV-1 protease inhibitors” (Bioorg Med Chem Lett, 2005)", "key": {"[1]": {"molecular_target": "T1, Human immunodeficiency virus type 1 protease (Human immunodeficiency virus 1, UniProt Q72874)", "assay": "Inhibitory concentration against human immunodeficiency virus 1 protease in MT-4 cells", "type": "cell-based, MT4"}, "CCRF-CEM [2]": {"test_system": "CCRF-CEM", "assay": "Effective concentration required to protect CEM cells from […] immunodeficiency virus (SIV) infection", "type": "functional, cell-based"}, "CCRF-CEM [3]": {"test_system": "CCRF-CEM", "assay": "Ratio of toxic concentration (TC50) to the effective concentration (EC50) (Therapeutic Index) in CEM cells", "type": "functional, Homo sapiens"}, "[4]": {"molecular_target": "T1, Human immunodeficiency virus type 1 protease", "assay": "Effective concentration required to inhibit human immunodeficiency virus 1 protease in MT-4 cells", "type": "cell-based, MT4"}}, "data": [{"compound": "CCCC1(CCc2ccccc2)CC(=O)C(C(CC)c2ccccc2)=C(O)O1", "note": "(stereo not drawn)", "values": [{"measurement": "IC50", "setting": "[1]", "result": 0.035, "unit": "µM"}]}, {"compound": "CCCC1(Cc2cccc3ccccc23)CC(=O)C(Sc2ccccc2C)=C(O)O1", "note": "(stereo not drawn)", "values": [{"measurement": "EC50", "setting": "CCRF-CEM [2]", "result": 3.8, "unit": "µM"}, {"measurement": "TI", "setting": "CCRF-CEM [3]", "result": ">26"}]}, {"compound": "CCCC1(CCc2ccccc2)CC(=O)C(Sc2cc(C)ccc2C)=C(O)O1", "note": "(stereo not drawn)", "values": [{"measurement": "EC50", "setting": "CCRF-CEM [2]", "result": 4.3, "unit": "µM"}, {"measurement": "TI", "setting": "CCRF-CEM [3]", "result": ">23"}]}, {"compound": "O=C1CC2(CCCCC2)OC(O)=C1Sc1ccccc1", "values": [{"measurement": "EC50", "setting": "CCRF-CEM [2]", "result": 12.3, "unit": "µM"}, {"measurement": "TI", "setting": "CCRF-CEM [3]", "result": 4}]}, {"compound": "CCCC1(Cc2cccc3ccccc23)CC(=O)C(Sc2ccccc2)=C(O)O1", "note": "(stereo not drawn)", "values": [{"measurement": "EC50", "setting": "CCRF-CEM [2]", "result": 4.3, "unit": "µM"}, {"measurement": "TI", "setting": "CCRF-CEM [3]", "result": 13}]}, {"compound": "CCCC1(CCc2ccccc2)CC(=O)C(Sc2ccccc2C)=C(O)O1", "note": "(stereo not drawn)", "values": [{"measurement": "EC50", "setting": "CCRF-CEM [2]", "result": 3.7, "unit": "µM"}, {"measurement": "TI", "setting": "CCRF-CEM [3]", "result": ">27"}]}, {"compound": "CCCC1(Cc2cccc3ccccc23)CC(=O)C(Sc2ccccc2CC)=C(O)O1", "note": "(stereo not drawn)", "values": [{"measurement": "EC50", "setting": "CCRF-CEM [2]", "result": 1.7, "unit": "µM"}, {"measurement": "EC50", "setting": "[4]", "result": 1.7, "unit": "µM"}, {"measurement": "TI", "setting": "CCRF-CEM [3]", "result": 46}]}, {"compound": "CCCC1(CCc2ccccc2)CC(=O)C(Sc2ccccc2CC)=C(O)O1", "note": "(stereo not drawn)", "values": [{"measurement": "EC50", "setting": "CCRF-CEM [2]", "result": 4.1, "unit": "µM"}, {"measurement": "TI", "setting": "CCRF-CEM [3]", "result": ">24"}]}, {"compound": "Cc1ccc(C)c(SC2=C(O)OC3(CCC(C(C)(C)C)CC3)CC2=O)c1", "note": "(stereo not drawn)", "values": [{"measurement": "EC50", "setting": "CCRF-CEM [2]", "result": 8.3, "unit": "µM"}, {"measurement": "TI", "setting": "CCRF-CEM [3]", "result": ">12"}]}, {"compound": "CCCC1(Cc2ccc3ccccc3c2)CC(=O)C(Sc2ccccc2CC)=C(O)O1", "note": "(stereo not drawn)", "values": [{"measurement": "EC50", "setting": "CCRF-CEM [2]", "result": 1.8, "unit": "µM"}, {"measurement": "TI", "setting": "CCRF-CEM [3]", "result": 34}]}, {"compound": "CCCC1(Cc2cccc3ccccc23)CC(=O)C(Sc2cc(C)ccc2C)=C(O)O1", "note": "(stereo not drawn)", "values": [{"measurement": "EC50", "setting": "CCRF-CEM [2]", "result": 4.6, "unit": "µM"}, {"measurement": "TI", "setting": "CCRF-CEM [3]", "result": 11}]}, {"compound": "Cc1ccccc1SC1=C(O)OC2(CCC(C(C)(C)C)CC2)CC1=O", "note": "(stereo not drawn)", "values": [{"measurement": "EC50", "setting": "CCRF-CEM [2]", "result": 6.7, "unit": "µM"}, {"measurement": "TI", "setting": "CCRF-CEM [3]", "result": 8}]}, {"compound": "CCCC1(CCc2ccccc2)CC(=O)C(Sc2ccccc2)=C(O)O1", "note": "(stereo not drawn)", "values": [{"measurement": "EC50", "setting": "CCRF-CEM [2]", "result": 4.6, "unit": "µM"}, {"measurement": "TI", "setting": "CCRF-CEM [3]", "result": ">22"}]}, {"compound": "Cc1ccc(C)c(SC2=C(O)OC3(CCCCC3)CC2=O)c1", "values": [{"measurement": "EC50", "setting": "CCRF-CEM [2]", "result": 3.6, "unit": "µM"}, {"measurement": "TI", "setting": "CCRF-CEM [3]", "result": ">28"}]}, {"compound": "CC(C)(C)C1CCC2(CC1)CC(=O)C(Sc1ccccc1)=C(O)O2", "note": "(stereo not drawn)", "values": [{"measurement": "EC50", "setting": "CCRF-CEM [2]", "result": "> 5", "unit": "µM"}, {"measurement": "TI", "setting": "CCRF-CEM [3]", "result": 1}]}, {"compound": "CCc1ccccc1SC1=C(O)OC2(CCCCC2)CC1=O", "values": [{"measurement": "EC50", "setting": "CCRF-CEM [2]", "result": 3.9, "unit": "µM"}, {"measurement": "TI", "setting": "CCRF-CEM [3]", "result": ">26"}]}, {"compound": "O=C1CC(COc2ccccc2)(c2ccccc2)OC(O)=C1Sc1ccccc1", "note": "(stereo not drawn)", "values": [{"measurement": "EC50", "setting": "CCRF-CEM [2]", "result": 13, "unit": "µM"}, {"measurement": "TI", "setting": "CCRF-CEM [3]", "result": 2}]}, {"compound": "Cc1ccccc1SC1=C(O)OC2(CCCCC2)CC1=O", "values": [{"measurement": "EC50", "setting": "CCRF-CEM [2]", "result": 3.3, "unit": "µM"}, {"measurement": "TI", "setting": "CCRF-CEM [3]", "result": ">30"}]}, {"compound": "CCc1ccccc1SC1=C(O)OC2(CCC(C(C)(C)C)CC2)CC1=O", "note": "(stereo not drawn)", "values": [{"measurement": "EC50", "setting": "CCRF-CEM [2]", "result": 8.1, "unit": "µM"}, {"measurement": "TI", "setting": "CCRF-CEM [3]", "result": 3}]}, {"compound": "CCCC1(Cc2ccc3ccccc3c2)CC(=O)C(Sc2ccccc2)=C(O)O1", "note": "(stereo not drawn)", "values": [{"measurement": "EC50", "setting": "CCRF-CEM [2]", "result": 3.2, "unit": "µM"}, {"measurement": "TI", "setting": "CCRF-CEM [3]", "result": 10}]}, {"compound": "Cc1ccc(C)c(SC2=C(O)OC(COc3ccccc3)(c3ccccc3)CC2=O)c1", "note": "(stereo not drawn)", "values": [{"measurement": "EC50", "setting": "CCRF-CEM [2]", "result": 9.2, "unit": "µM"}, {"measurement": "TI", "setting": "CCRF-CEM [3]", "result": 5}]}, {"compound": "Cc1ccccc1SC1=C(O)OC(COc2ccccc2)(c2ccccc2)CC1=O", "note": "(stereo not drawn)", "values": [{"measurement": "EC50", "setting": "CCRF-CEM [2]", "result": 8.2, "unit": "µM"}, {"measurement": "TI", "setting": "CCRF-CEM [3]", "result": ">12"}]}, {"compound": "Cc1ccc(C(C)(C)C)c(SC2=C(O)OC(CCc3ccccc3)(C(C)C)CC2=O)c1", "note": "(stereo not drawn)", "values": [{"measurement": "EC50", "setting": "[4]", "result": 15, "unit": "µM"}, {"measurement": "IC50", "setting": "[1]", "result": 0.0011, "unit": "µM"}]}, {"compound": "CCCC1(Cc2ccc3ccccc3c2)CC(=O)C(Sc2ccccc2C)=C(O)O1", "note": "(stereo not drawn)", "values": [{"measurement": "EC50", "setting": "CCRF-CEM [2]", "result": 2, "unit": "µM"}, {"measurement": "TI", "setting": "CCRF-CEM [3]", "result": 17}]}, {"compound": "CCc1ccccc1SC1=C(O)OC(COc2ccccc2)(c2ccccc2)CC1=O", "note": "(stereo not drawn)", "values": [{"measurement": "EC50", "setting": "CCRF-CEM [2]", "result": 5.6, "unit": "µM"}, {"measurement": "TI", "setting": "CCRF-CEM [3]", "result": 8}]}, {"compound": "CCCC1(Cc2ccc3ccccc3c2)CC(=O)C(Sc2cc(C)ccc2C)=C(O)O1", "note": "(stereo not drawn)", "values": [{"measurement": "EC50", "setting": "CCRF-CEM [2]", "result": 4, "unit": "µM"}, {"measurement": "TI", "setting": "CCRF-CEM [3]", "result": 10}]}, {"compound": "CCC(c1ccccc1)c1c(O)c2ccccc2oc1=O", "note": "(stereo not drawn) [PHENPROCOUMON]", "values": [{"measurement": "IC50", "setting": "[1]", "result": 1, "unit": "µM"}]}]}
